For assay [1], the target named is T1, human GIIAPLA2 (hGIIAPLA2) (Homo sapiens, UniProt P14555).
T1 construct: hGIIAPLA2 was prepared as previously described [33]; made in house
T1 sequence (P14555 21-144): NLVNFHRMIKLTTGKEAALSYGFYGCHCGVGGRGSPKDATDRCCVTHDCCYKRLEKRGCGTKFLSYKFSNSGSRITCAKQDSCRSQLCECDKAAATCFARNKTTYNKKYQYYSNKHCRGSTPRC
Kind of assay: In vitro fluorimetric PLA2 assay (β-py-C10-PG substrate). It is filed as biochemical. The note with it: 2 µM β-py-C10-PG, 1 ng/mL hGIIAPLA2. As for the experimental part: (§1) The compounds C1-C8 were submitted to fluorimetric assay to determine their inhibitory potencies and selectivity towards human GIIAPLA2 (hGIIAPLA2) versus porcine group IB PLA2 (pGIBPLA2) (Table 2). GIBPLA2 is an enzyme of the same family as GIIAPLA2 (sPLA2) but is mainly involved in digestion of dietary phospholipids and is secreted by the pancreas. Lipophilicity parameters, log P, of these products are calculated by use of Rekker's fragmental data (Table 2). The molecules C1-C8 are specific inhibitors of hGIIAPLA2 because none inhibited pGIBPLA2 at the highest concentration tested (100 µM). Such selectivity implies that C1-C8 should not interfere with the digestion process.
(§2) Fatty-acid free BSA and pancreatic PLA2 were from Sigma. hGIIAPLA2 was prepared as previously described. The fluorescent substrate for PLA2 assay, 1-hexadecanoyl-2-(10-pyrenedecanoyl)-sn-glycero-3-phosphoglycerol, ammonium salt (β-py-C10-PG) was from Molecular Probes (Eugene). PLA2 activity was evaluated as previously described with β-py-C10-PG used as a substrate (2 µM final concentration). In a total volume of 1 mL, the standard reaction medium contained 50 mM Tris-HCl (pH 7.5), 500 mM NaCl, 1 mM EGTA, 2 µM β-py-C10-PG, 0.1% fatty-acid free BSA and 6 ng/mL pancreatic PLA2 or 1 ng/mL hGIIAPLA2. The fluorescence (λex = 342 nm and λem = 398 nm) of the enzymatic reaction medium was recorded for 3 min with use of a spectrofluorimeter LS 50 (Perkin-Elmer) equipped with a Xenon lamp. The reaction was initiated by the addition of CaCl2 (10 mM, final concentration). The increase in fluorescence was continuously recorded for 1 min, and PLA2 activity was calculated as previously described. When used, the inhibitor was added to the reaction medium after introduction of BSA. The activity is expressed in micromoles of fluorescent β-py-C10-PG hydrolyzed per min. The standard error of the mean of three independent experiments was less than 10%, which allows for the determination of the IC50 values (concentration of inhibitors producing 50% inhibition) of each compound.

The target in assay [2] is T2, porcine group IB PLA2 (pGIBPLA2) (Sus scrofa, UniProt P00592).
T2 construct: purchased Sigma
T2 sequence (P00592 23-146): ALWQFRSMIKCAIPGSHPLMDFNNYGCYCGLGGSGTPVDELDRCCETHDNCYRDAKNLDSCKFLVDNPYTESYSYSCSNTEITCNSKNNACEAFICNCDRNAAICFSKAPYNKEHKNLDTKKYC
The description is as above. Particulars: 2 µM β-py-C10-PG, 6 ng/mL pancreatic PLA2. It is filed as biochemical. As for the experimental part: as §1, §2

The subject of assay [3] is IL-1β-stimulated NO secretion in articular chondrocytes. Kind of assay: IL-1β-stimulated NO (nitrite) secretion in articular chondrocytes (Griess). The assay is classed as cell-based, rabbit. How it is done: We tested the effect of C8 on the IL-1β-stimulated secretion of NO in chondrocytes. NO is a mediator of immune and inflammatory responses. In vitro, IL-1β induces the expression of inducible NO synthase (iNOS) by chondrocytes, and consequently an increase in NO production. NO secretion, evaluated by nitrite concentration in the cell culture medium, represents a reliable IL-1β-dependent and PLA2-independent inflammatory marker in our cell model. Chondrocytes were treated for 20 h with IL-1β alone or 1 h after the addition of C8.
Articular chondrocytes were isolated from 5-week-old Fauve de Bourgogne female rabbits (CPA, Orleans, France) and cultured at the first passage in conditions avoiding cell dedifferentiation as previously described. Cells were cultured at 37°C in 12-well plates in Ham's F-12 medium containing 10% FCS, 20 IU/mL penicillin, and 20 µg/mL streptomycin (all from Invitrogen) until nearly confluent. Then medium was replaced with DMEM (Invitrogen) containing 20 IU/mL penicillin, and 20 µg/mL streptomycin and, if necessary, 0.1% fatty acid free BSA (Sigma) or 2% FCS. At this time the C8 compound dissolved in DMSO (Sigma) was added to the medium (the amount of DMSO was kept at 1‰ (v/v) in all the wells). 1 h after the addition of C8, IL-1β (PeproTech) was added to the medium. Consequently, chondrocytes were incubated for 20 h with IL-1β and for 21 h with C8.
20 h after the addition of IL-1β to the chondrocytes, culture media were collected, and aliquots were stored at −80°C until PGE2 and nitrite quantification. PGE2 concentration in culture media was determined by use of an enzyme immunoassay (EIA) kit (PGE2 EIA Kit-monoclonal; Cayman Chemical). Nitrite concentration was determined by a spectrophotometry method based on the Griess reaction. Briefly, 200 µL of culture medium or sodium nitrite (NaNO2, Merck) standard dilutions were mixed with 100 µL Griess reagent [0.5% (w/v) sulphanilic acid (Merck), 0.05% (w/v) N(1-naphtyl)ethylenediamine (Merck), 30% (v/v) acetic acid, 1.5 N HCl] and incubated for 10 min at 50°C. The absorbance was measured at 540 nm.
(In general: The Griess reaction detects nitrite, a stable product of nitric oxide.)

For another assay, the system named is COX-2. Kind of assay: Western blot of COX-2 protein level in IL-1β-treated chondrocytes. It is filed as cell-based, rabbit. Particulars: C8 0.31-1.24 µM in DMEM, IL-1β 20 h. How it is done: (§3) As expected, COX-1 protein was detectable but COX-2 and iNOS proteins were undetectable in untreated control conditions (Fig. 6A). […] Consequently, the protein ratio of COX-1 to COX-2 was not modified by C8 (Fig. 6B). […] Cell lysates were centrifuged for 15 min at 14000 rpm at 4°C and supernatants were collected. Protein concentrations were determined by the Bradford method by use of the Protein Assay dye reagent (Bio-Rad). Protein extracts (20 µg) were size-separated by SDS-PAGE in a 10% (w/v) polyacrylamide gel and electroblotted to a nitrocellulose membrane. Equal protein loading and transfer was confirmed by staining the membrane with Ponceau Red [0.2% (w/v) in H2O:acetic acid 99∶1]. The membrane was sequentially incubated with antibodies against COX-1 (1∶200, Santa Cruz Biotechnology), COX-2 (1∶500, Santa Cruz Biotechnology), iNOS (1∶400, BD Biosciences) or α-tubulin (1∶100, Santa Cruz Biotechnology) and then with peroxidase-conjugated donkey anti-goat IgG (1∶20000) or donkey anti-rabbit IgG (1∶200, both Santa Cruz Biotechnology). Immunocomplexes were detected by an enhanced chemiluminescence kit (Amersham Bioscience). The membrane was stripped by incubation in 0.2 M NaOH between successive immunodetections. Semi-quantitative scanning densitometry involved use of the ImageJ program (NIH, USA).
A general note: A western blot detects proteins with antibodies after separation by electrophoresis.

The next assay relates to COX-1. Kind of assay: Western blot of COX-1 protein level in IL-1β-treated chondrocytes. It is filed as cell-based, rabbit. Particulars: C8 0.31-1.24 µM in DMEM, IL-1β 20 h. How it is done: as §3

Structures are written as SMILES.

One may read the IC50 as the concentration at which inhibition is half-maximal. `O=c1[nH]c(Cc2ccc(OCCCCCOc3cc4ccccc4c4ccccc34)cc2)no1` [C8]: the IC50 in assay [1] is 620 ± 150 nM; in assay [2], over 100000 nM. Further, the “inhibition of IL-1β-stimulated nitrite secretion” value in assay [3] (DMEM + 0.1% BSA, IL-1β 20 h) is reported as “did not significantly inhibit”; in assay [3] (DMEM + 2% FCS, C8 at 0.31, 0.62 and 0.94 µM), “did not inhibit”; in assay [3] (DMEM medium alone, IL-1β 20 h) it was “did not significantly inhibit”. In addition, the “decrease of IL-1β-induced nitrite production” value came to 17% in assay [3] (DMEM + 2% FCS, C8 1.24 µM); 19% in assay [3] (DMEM + 2% FCS, C8 2.48 µM); 21% in assay [3] (DMEM + 2% FCS, C8 4.96 µM). Moreover, the “effect on COX-2 protein level” value in the assay on COX-2 is “did not alter”. Also, the “effect on COX-1 protein level” value with COX-1 was “did not alter”.

(Values after paper PMC2879362, “Design of Group IIA Secreted/Synovial Phospholipase A2 Inhibitors: An Oxadiazolone Derivative Suppresses Chondrocyte Prostaglandin E2 Secretion” (PLoS ONE, 2010).)
